Test in all cases: cells
The test system of one test is A549. On the set-up: species or system H23, H460, H358; CellTiter-Glo ATP viability of NSCLC cell lines. The note with it: Homo sapiens, A549, 48 h, read-out: AZD6738 GI50 (uM). As to the method:
(§1) ATP levels were assessed as surrogate measure of viability was assessed using the CellTiter-Glo Luminescent Cell Viability Assay (Promega) and Safire^2 plate reader (Tecan). Raw data were corrected for background luminescence prior to further analysis. […] GI50 values, defined as the dose X at which Y = 50%, were extrapolated from dose response curves. For combination treatments, data were normalized to the mean of untreated controls. Loewe excess matrices were generated using Chalice Analyzer Online (Horizon CombinatoRx) and mean normalized inhibition values. […] Log dose response curves were generated in GraphPad Prism 6 by nonlinear regression (log(inhibitor) vs. normalized response with variable slope) of log-transformed (x = log(x)), normalized data. IC50 values were calculated by Prism 6.

The test system of the next test is H460. On the set-up: species or system H23, A549, H358; CellTiter-Glo ATP viability of NSCLC cell lines. The settings on record: Homo sapiens, NCI-H460, 48 h, read-out: AZD6738 GI50 (uM). As to the method: as §1
Another test concerns H358. On the set-up: species or system H23, H460, A549; CellTiter-Glo ATP viability of NSCLC cell lines. The settings on record: Homo sapiens, NCI-H358, 48 h, read-out: AZD6738 GI50 (uM). As to the method: as §1
A further test concerns H23. More on the design: species or system H460, A549, H358; CellTiter-Glo ATP viability of NSCLC cell lines. The note with it: Homo sapiens, NCI-H23, 48 h, read-out: AZD6738 GI50 (uM). How it is done: as §1

As a reminder, the GI50 is the concentration giving 50% growth inhibition. Regarding `C[C@@H]1COCCN1c1cc(C2([S@](C)(=N)=O)CC2)nc(-c2cc[nH]c3nccc2-3)n1` [AZD6738], the GI50 with A549 worked out at 5.42 µM; with H460, 1.05 µM; in the test on H358 it was 6.95 µM; with H23, 2.38 µM.

These data come from paper PMC4792557 (Oncotarget, 2015).
